Several values for one entry are separate records, joined by “and”; a condition that tells them apart may be missing. Equal entries are not always repeated. Entries after “also recorded” stand apart in the source; their conditions may differ. Each block holds one compound with its values, some of them ahead of it. Non-standard residues stand in square brackets, D forms with d. Residues, ends and D or L forms follow the SMILES beside them. pGlu = O=C1CC[C@@H](C(=O)O)N1
Legend:
[1] = tested on: release of FSH; assay: Release of FSH in rats after sc injection; assay type: in vivo; settings: for release of FSH: in our assays
Text: (§1) The data on the release of LH and FSH in rats by modifications of LHRH with one structural change are in Table II.
(§2) Exclusive of the salmon-LHRH, only one of the six decapeptides with two structural changes had significant activity.

[2] = tested on: rat pituitary cells; settings: cited from earlier work; for activity to release FSH relative to P/O LHRH: in vitro, rat pituitary cells, Miyamoto et al. (b); for activities to release FSH compared with LHRH (Table I): fraction of the activities of LHRH or words
[3] = tested on: release of LH; assay: Release of LH in rats after sc injection; assay type: in vivo; settings: for release of LH compared with LHRH: sc injection, dose and time as stated in the source; for release of LH: in our assays
Text: as §1, §2

[4] = tested on: release of FSH; settings: comparison with purified hypothalamic fractions; cited from earlier work
[5] = tested on: rat anterior pituitary cells in primary culture; settings: cited from earlier work; for activity (potency) to release LH relative to P/O LHRH: in vitro, rat pituitary cells, Sherwood et al. (a), Miyamoto et al. (b); for activities to release LH compared with LHRH (Table I): fraction of the activities of LHRH or words
[6] = target: T1, receptor identified with LHRH (Rattus norvegicus, UniProt P30969); assay: Radio receptor assay (RRA) with 125I-D-Lys6-LHRH as ligand; assay type: binding; settings: relative to LHRH
T1 construct: in tissue there is very likely a different receptor; from tissue
T1 sequence (P30969 1-327): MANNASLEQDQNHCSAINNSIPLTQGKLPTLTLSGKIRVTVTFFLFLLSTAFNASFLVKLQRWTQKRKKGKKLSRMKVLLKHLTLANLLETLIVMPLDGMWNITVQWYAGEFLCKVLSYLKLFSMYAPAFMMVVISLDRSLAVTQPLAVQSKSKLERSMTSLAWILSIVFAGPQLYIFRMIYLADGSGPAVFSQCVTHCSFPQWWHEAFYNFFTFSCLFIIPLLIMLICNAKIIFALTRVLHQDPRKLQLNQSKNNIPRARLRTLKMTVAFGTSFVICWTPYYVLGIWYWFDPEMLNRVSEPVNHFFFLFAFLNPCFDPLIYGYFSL
Text: Data are included in Table II, III, IV and V from radio receptor assays as described by Heber et al. (Am. J. Physiol. […]: E227-E230 (1978)).
For the radio receptor assay, labelled ^125 I-D-Lys^6 -LHRH, was utilized as the ligand. The results are expressed as the relative inhibitory binder of the analog to LHRH at ID50 values.

[7] = tested on: release of FSH; assay: Release of FSH in rats after sc injection; assay type: in vivo; settings: dose and time as stated in the source
[8] = tested on: release of FSH; settings: at 1000 and 5000 ng; cited from earlier work
[9] = tested on: release of LH; settings: at 1000 and 5000 ng; cited from earlier work
[10] = 15 min. after sc injection, 50 ng, LHRH = 100
[11] = 15 min. after sc injection, 100 ng, LHRH = 100
[12] = 15 min. after sc injection, 100 ng, experiment marked *
[13] = 15 min. after sc injection, 100 ng, experiment marked *, LHRH* = 100
[14] = 15 min. after sc injection, 1000 ng, LHRH = 100
[15] = 15 min. after sc injection, 1000 ng, experiment marked *
[16] = 30 min. after sc injection, 50 ng, LHRH = 100
[17] = 30 min. after sc injection, 100 ng, LHRH = 100
[18] = 30 min. after sc injection, 1000 ng, LHRH = 100
[19] = 60 min. after sc injection, 300 ng, LHRH = 100
[20] = 60 min. after sc injection, 3000 ng, LHRH = 100
[21] = release 15 min. after sc injection, dosage of peptide 50 ng
[22] = release 15 min. after sc injection, dosage of peptide 100 ng
[23] = release 15 min. after sc injection, dosage of peptide 1000 ng
[24] = release 30 min. after sc injection, dosage of peptide 50 ng
[25] = release 30 min. after sc injection, dosage of peptide 100 ng
[26] = release 30 min. after sc injection, dosage of peptide 1000 ng
[27] = release 60 min. after sc injection, dosage of peptide 300 ng
[28] = release 60 min. after sc injection, dosage of peptide 3000 ng

Structure (SMILES): CC(C)C[C@H](NC(=O)CNC(=O)[C@H](Cc1ccc(O)cc1)NC(=O)[C@H](CO)NC(=O)[C@H](Cc1c[nH]c2ccccc12)NC(=O)[C@H](Cc1c[nH]cn1)NC(=O)[C@@H]1CCC(=O)N1)C(=O)N[C@@H](CCCNC(=N)N)C(=O)N1CCC[C@H]1C(=O)NCC(N)=O [LHRH, pGlu--His--Trp--Ser--Tyr--Gly--Leu--Arg--Pro--Gly--NH2, reference compound]
FSH % change [1, 10]: 100% | FSH % change [1, 11]: 100% | FSH [1, 12]: 455 ng/mL | FSH % change [1, 13]: 100% | FSH % change [1, 14]: 100% | FSH [1, 15]: 576 ng/mL | FSH % change [1, 16]: 100% | FSH % change [1, 17]: 100% | FSH % change [1, 18]: 100% | FSH % change [1, 19]: 100% | FSH % change [1, 20]: 100% | FSH [1, 21]: 550 ng/mL | FSH [1, 22]: 465 ng/mL | FSH [1, 23]: 483 ng/mL | FSH [1, 24]: 515 ng/mL | FSH [1, 25]: 494 ng/mL and 434 ng/mL | FSH [1, 26]: 691 ng/mL and 1010 ng/mL | FSH [1, 27]: 596 ng/mL and 554 ng/mL | FSH [1, 28]: 1173 ng/mL and 1501 ng/mL | activity to release FSH relative to P/O LHRH [2]: 100% | LH % change [3, 10]: 100% | LH % change [3, 11]: 100% | LH [3, 12]: 21 ng/mL | LH % change [3, 13]: 100% | LH % change [3, 14]: 100% | LH [3, 15]: 39 ng/mL | LH % change ([3]; 15 min. after sc injection, 1000 ng, experiment marked *, LHRH* = 100): 100% | LH % change [3, 16]: 100% | LH % change [3, 17]: 100% | LH % change [3, 18]: 100% | LH % change [3, 19]: 100% | LH % change [3, 20]: 100% | LH [3, 21]: 16 ng/mL | LH [3, 22]: 24 ng/mL | LH [3, 23]: 57 ng/mL | LH [3, 24]: 18 ng/mL | LH [3, 25]: 11 ng/mL | LH [3, 27]: 11 ng/mL and 17 ng/mL | LH [3, 28]: 82 ng/mL and 113 ng/mL | FSH released [4]: ca. 18,000 ng/ml | activity (potency) to release LH relative to P/O LHRH [5]: 100%

level at which effectiveness in the radioreceptor assay for LHRH is achieved, times that of LHRH [6]: 46 times
Structure (SMILES): NC(=O)CC[C@H](NC(=O)[C@H](Cc1c[nH]c2ccccc12)NC(=O)CNC(=O)[C@H](Cc1c[nH]cn1)NC(=O)[C@H](CO)NC(=O)[C@H](Cc1c[nH]c2ccccc12)NC(=O)[C@H](Cc1c[nH]cn1)NC(=O)[C@@H]1CCC(=O)N1)C(=O)N1CCC[C@H]1C(=O)NCC(N)=O [[His^5 Trp^7 Gln^8]--LHRH, p-Glu His Trp Ser His Gly Trp Gln Pro Gly-NH2] ([pGlu]HWSHGWQPG-NH2)
FSH % change [1, 19]: 68% and 67.8% | FSH [1, 22]: 403 ng/mL | FSH [1, 23]: 486 ng/mL | FSH [1, 27]: 404 ng/mL | FSH [1, 28]: 1161 ng/mL | LH % change [3, 19]: 46% | LH % change [3, 20]: 65% | LH [3, 22]: 17 ng/mL | LH [3, 23]: 66 ng/mL | LH [3, 27]: 5 ng/mL | LH [3, 28]: 53 ng/mL | release of LH compared with LHRH [3]: released less LH; also recorded: released equivalent levels of LH and FSH when monitored 15 minutes after injection; also recorded: as effective at 100 ng as LHRH; also recorded: about two times as effective as [His^5, Trp^7 Leu^8 ]-LHRH | release of FSH compared with LHRH [7]: as much FSH at the higher dosage of 3000 ng as LHRH; also recorded: released equivalent levels of LH and FSH when monitored 15 minutes after injection; also recorded: released as much FSH as LHRH

Structure (SMILES): NC(=O)CNC(=O)[C@@H]1CCCN1C(=O)[C@H](Cc1ccc(O)cc1)NC(=O)[C@H](Cc1c[nH]c2ccccc12)NC(=O)CNC(=O)[C@H](Cc1c[nH]cn1)NC(=O)[C@H](CO)NC(=O)[C@H](Cc1c[nH]c2ccccc12)NC(=O)[C@H](Cc1c[nH]cn1)NC(=O)[C@@H]1CCC(=O)N1 [[His^5 Trp^7 Tyr^8] (Chicken II), pGlu--His--Trp--Ser--His--Gly--Trp--Tyr--Pro--Gly--NH2, reference compound] ([pGlu]HWSHGWYPG-NH2)
FSH % change [1, 17]: 62% | FSH % change [1, 19]: 58% | FSH % change [1, 20]: 55% | release of FSH ([1]; dose level 100 ng): 62% | release of FSH ([1]; dose level 1000 ng): 86% | FSH [1, 25]: 305 ng/mL | FSH [1, 26]: 596 ng/mL | FSH [1, 27]: 344 ng/mL | FSH [1, 28]: 644 ng/mL | activities to release FSH compared with LHRH (Table I) [2]: about 1/3 | activity to release FSH relative to P/O LHRH [2]: 41% | LH % change [3, 17]: 18% | LH % change [3, 18]: 39% | LH % change [3, 19]: 32% | LH % change [3, 20]: 10% | release of LH ([3]; dose level 100 ng): 18% | release of LH ([3]; dose level 1000 ng): 30% | LH [3, 25]: 2 ng/mL | LH [3, 26]: 14 ng/mL | LH [3, 27]: 3.5 ng/mL | LH [3, 28]: 8.4 ng/mL | activities to release LH compared with LHRH (Table I) [5]: about 1/3 | activity (potency) to release LH relative to P/O LHRH [5]: 32%

Structure (SMILES): CC(C)C[C@H](NC(=O)CNC(=O)[C@H](Cc1ccc(O)cc1)NC(=O)[C@H](CO)NC(=O)[C@H](Cc1c[nH]c2ccccc12)NC(=O)[C@H](Cc1c[nH]cn1)NC(=O)[C@@H]1CCC(=O)N1)C(=O)N[C@@H](CC(C)C)C(=O)N1CCC[C@H]1C(=O)NCC(N)=O [[Leu^8]--LHRH, p-Glu His Trp Ser Tyr Gly Leu Leu Pro Gly-NH2, reference compound]
release of FSH compared with LHRH ([1]; sc injection, dose and time as stated in the source): relatively low activities | release of LH compared with LHRH [3]: relatively low activities | activity for FSH release [8]: Inactive | activity for LH release [9]: Inactive

Structure (SMILES): CC(C)C[C@H](NC(=O)[C@H](Cc1c[nH]c2ccccc12)NC(=O)CNC(=O)[C@H](Cc1ccc(O)cc1)NC(=O)[C@H](CO)NC(=O)[C@H](Cc1c[nH]c2ccccc12)NC(=O)[C@H](Cc1c[nH]cn1)NC(=O)[C@@H]1CCC(=O)N1)C(=O)N1CCC[C@H]1C(=O)NCC(N)=O [[Trp^7 Leu^8]--LHRH, pGlu--His--Trp--Ser--Tyr--Gly--Trp--Leu--Pro--Gly--NH2, reference compound] ([pGlu]HWSYGWLPG-NH2)
FSH % change [1, 20]: 22% | FSH [1, 28]: 258 ng/mL | activities to release FSH compared with LHRH (Table I) [2]: extremely low activities | LH % change [3, 20]: 3.0% | LH [3, 28]: 2.5 ng/mL | activities to release LH compared with LHRH (Table I) [5]: extremely low activities | activity (potency) to release LH relative to P/O LHRH [5]: 2-3%

From US4721775A, “Effective peptides related to the luteinizing hormone releasing hormone from L-amino acids” (Board of Regents, The University of Texas System, priority 1985, dated 1988)
